Data on 1 compound can be found in patent US20180235993A1 (priority 2000, published 2018).

Series [1] has as its system Human bone marrow cells (CFU-GM). The series is described as follows: Human bone marrow toxicity, CFU-GM clonogenic assay. The series is classed as cell-based. The settings on record: Homo sapiens, CFU-GM, read-out: IC50 CFU-GM. The source says: (§1) Human bone marrow cells were collected from normal healthy volunteers and the mononuclear population was separated by Ficoll-Hypaque gradient centrifugation as described previously by Sommadossi J-P, Carlisle R. “Toxicity of 3′-azido-3′-deoxythymidine and 9-(1,3-dihydroxy-2-propoxymethyl)guanine for normal human hematopoietic progenitor cells in vitro” Antimicrobial Agents and Chemotherapy 1987; 31:452-454; and Sommadossi J-P, Schinazi R F, Chu C K, Xie M-Y. “Comparison of cytotoxicity of the (−)- and (+)-enantiomer of 2′,3′-dideoxy-3′-thiacytidine in normal human bone marrow progenitor cells” Biochemical Pharmacology 1992; 44:1921-1925. The culture assays for CFU-GM and BFU-E were performed using a bilayer soft agar or methylcellulose method. Drugs were diluted in tissue culture medium and filtered. After 14 to 18 days at 37° C. in a humidified atmosphere of 5% CO2 in air, colonies of greater than 50 cells were counted using an inverted microscope. The results in Table 4 are presented as the percent inhibition of colony formation in the presence of drug compared to solvent control cultures.

The test system of series [2] is Human bone marrow cells (BFU-E). The experiment in a line: Human bone marrow toxicity, BFU-E clonogenic assay. The series is classed as cell-based. The settings on record: Bone marrow cell; human bone marrow colony formation, 14 to 18 days.
Text: as §1

A short description of series [3]: Cytotoxicity assay (sulforhodamine B, CC50), Human Hepatoma. The class given is cell-based. The settings on record: human, Huh7 cells (human hepatoma); Table 13; Huh7 cells. The protocol:
Cells were seeded at a rate of between 5×10^3 and 5×10^4/well into 96-well plates in growth medium overnight at 37° C. in a humidified CO2 (5%) atmosphere. New growth medium containing serial dilutions of the drugs was then added. After incubation for 4 days, cultures were fixed in 50% TCA and stained with sulforhodamineB. The optical density was read at 550 nm. The cytotoxic concentration was expressed as the concentration required to reduce the cell number by 50% (CC50).

The subject of another series is BVDV (NADL strain). The series is described as follows: Yield Reduction Assay. The series is classed as cell-based, Bovine Viral Diarrhea virus. The protocol:
The assay was performed as described by Baginski, S. G.; Pevear, D. C.; Seipel, M.; Sun, S. C. C.; Benetatos, C. A.; Chunduru, S. K.; Rice, C. M. and M. S. Collett “Mechanism of action of a pestivirus antiviral compound” PNAS USA 2000, 97(14), 7981-7986, with minor modifications. Briefly, MDBK cells were seeded onto 24-well plates (2×10^5 cells per well) 24 hours before infection with BVDV (NADL strain) at a multiplicity of infection (MOI) of 0.1 PFU per cell. Serial dilutions of test compounds were added to cells in a final concentration of 0.5% DMSO in growth medium. Each dilution was tested in triplicate. After three days, cell cultures (cell monolayers and supernatants) were lysed by three freeze-thaw cycles, and virus yield was quantified by plaque assay. Briefly, MDBK cells were seeded onto 6-well plates (5×10^5 cells per well) 24 h before use. Cells were inoculated with 0.2 mL of test lysates for 1 hour, washed and overlaid with 0.5% agarose in growth medium. After 3 days, cell monolayers were fixed with 3.5% formaldehyde and stained with 1% crystal violet (w/v in 50% ethanol) to visualize plaques. FIG. 9 is a graphical illustration of the results from the Yield Reduction Assay. FIG. 8 is an image of BVDV yield reduction in the presence of increasing concentrations of β-D-2′-CH3-riboC.

Bounds are passed on as bounds.

For the compound `CC1(O)[C@@H](O)[C@@H](CO)O[C@H]1n1cnc2c(=O)[nH]c(N)nc21` (stereo partly drawn) [β-D-2′-CH3-riboG], the IC50 in series [1] is above 10 µM. This compound showed an IC50 in series [2] above 100 µM. Moreover, the concentration giving a half-maximal response (EC50) at 4 days in series [3] was above 250 µM. In the series with BVDV (NADL strain), the “Conc. for 6-log Reduction” value is 20 μM, the “Yield Reduction 6 log10 reduction (μM)” value was 20 μM and the “reduction in yield reduction assay” value is 4 log. The same compound gave a concentration for an effect of 90% (EC90) with BVDV (NADL strain) (Bovine viral diarrhea virus isolates and strains, Table 13, BVDV) of 3 µM.

The term IC50 denotes the concentration that gives 50% inhibition. Broadly, the EC50 is the concentration needed to bring the measured effect to its halfway point. As a reminder, the EC90 is the concentration at which the effect reaches the 90% level. A high value points to weaker potency.
